{
  "source": "patent US9364555B2",
  "about": "“Pederin and psymberin agents” (priority 2011, dated 2016)",
  "key": {"[1]": {"system": "HCT116 colon cancer cells", "assay": "cell viability study, MTS assay with a three day incubation period", "assay_type": "cell-based", "protocol": "The potency of the above-described compounds was measured in cell viability studies using HCT116 colon cancer cells with an MTS assay with a three day incubation period.\nThe second generation analogs were evaluated for their ability to inhibit HCT116 cell growth through the same protocol that was used to evaluate the initial set of compounds."}, "[2]": {"system": "p53 knockout variant of the HCT116 cell line", "assay": "test against p53 knockout variant of the HCT116 cell line", "assay_type": "cell-based", "description": "The identity of the alkoxy group in the acyl aminal subunit appears to exert little influence over the biological activity, but the presence of the alkoxy group enhances potency by at least one order of magnitude (entries 1-4 vs. entry 5). […] This has also been observed in psymberin analogs that lack a substituent at that position (Huang et al., Org. Lett. 2009, 11, 867). […] The approximately one order of magnitude potency reduction of the des-methylene analog (entry 7), though consistent with results from the Nakata group, was somewhat surprising based on the minimal structural perturbation that this change effects on the hydrogen bond donors and acceptors in the molecule (Fukui et al., Bioorg. Med. Chem. Lett. 1997, 7, 2081)."}, "[3]": {"system": "HCT116 colon cancer cells", "details": "literature value, read-out: GI50 value in the literature for this cell line; cited from earlier work"}, "[4]": {"details": "HCT116 cell growth, same protocol as Table 1, Table 2, second generation analogs"}, "[5]": {"details": "HCT116 cells, MTS assay, three day incubation, Table 1, natural products and analogs"}, "[6]": {"details": "Homo sapiens, HCT-116, HCT116 cell growth, same protocol as Table 1, Table 2, second generation analogs"}},
  "note": "Like-named read-outs stand apart in the source and are kept apart here.",
  "data": [
    {"compound": "4-desmethylene-10-desmethoxy 13-O-methylpederin [Compound 49]", "values": [
      {"measurement": "GI50", "setting": "[1]; [4]", "value": "79 ± 8", "unit": "nM"}
    ]},
    {"compound": "8-desmethoxy psymberin [Compound 47]", "values": [
      {"measurement": "GI50", "setting": "[1]; [4]", "value": "0.83 ± 0.1", "unit": "nM"}
    ]},
    {"compound": "10-desmethoxy pederin [Compound 36e]", "values": [
      {"measurement": "GI50", "setting": "[1]; [5]", "value": "7.7 ± 0.24", "unit": "nM"}
    ]},
    {"compound": "10-desmethoxy pedestatin [Compound 48]", "values": [
      {"measurement": "GI50", "setting": "[1]; [4]", "value": "0.068 ± 0.02", "unit": "nM"}
    ]},
    {"compound": "10-dimthoxybenzyloxy pederin [Compound 36d]", "values": [
      {"measurement": "GI50", "setting": "[1]; [5]", "value": "0.32 ± 0.09", "unit": "nM"}
    ]},
    {"compound": "10-trifluoroethoxy pederin [Compound 36c]", "values": [
      {"measurement": "GI50", "setting": "[1]; [5]", "value": "0.55 ± 0.024", "unit": "nM"}
    ]},
    {"compound": "13-OTBS pederin", "values": [
      {"measurement": "GI50", "setting": "[1]; [5]", "value": "3.1 ± 0.1", "unit": "nM"}
    ]},
    {"compound": "C=C1C[C@](OC)([C@H](O)C(=O)N[C@@H](OC)[C@@H]2C[C@@H](O)C(C)(C)[C@@H](C[C@@H](COC)OC)O2)O[C@H](C)[C@@H]1C", "note": "[Compound 1, pederin]", "values": [
      {"measurement": "activity against p53 knockout variant of HCT116 compared with HCT116", "setting": "[2]", "value": "essentially identical activity"},
      {"measurement": "GI50", "setting": "[1]; [5]", "value": "0.6 ± 0.1", "unit": "nM"}
    ]},
    {"compound": "C=C(C)CC(OC)[C@H](O)C(=O)N[C@@H](OC)[C@@H]1C[C@@H](O)C(C)(C)[C@@H](C[C@H](O)[C@@H](C)[C@H]2Cc3c(C)c(O)cc(O)c3C(=O)O2)O1", "note": "(stereo partly drawn) [Compound 2, psymberin]", "values": [
      {"measurement": "GI50", "setting": "[1]; [5]", "value": "0.052 ± 0.02", "unit": "nM"},
      {"measurement": "GI50", "setting": "[3]", "value": 0.16, "unit": "nM"}
    ]},
    {"compound": "C=C1CC(OC)(C(O)C(=O)NC(OCC)C2CC(O)C(C)(C)C(CC(COC)OC)O2)OC(C)C1C", "note": "(stereo not drawn) [Compound 36b, 10-ethoxy pederin]", "values": [
      {"measurement": "GI50", "setting": "[1]; [5]", "value": "0.34 ± 0.08", "unit": "nM"}
    ]},
    {"compound": "C=C1C[C@](OC)([C@H](O)C(=O)N/C=C2/C[C@@H](O)C(C)(C)[C@@H](C[C@@H](COC)OC)O2)O[C@H](C)[C@@H]1C", "note": "[Compound 37, pederin enamide]", "values": [
      {"measurement": "activity against p53 knockout variant of HCT116 compared with HCT116", "setting": "[2]", "value": "essentially identical activity"},
      {"measurement": "GI50", "setting": "[1]; Homo sapiens, HCT-116, 72 h, HCT116 cells, MTS assay, three day incubation, Table 1, natural products and analogs", "value": "27 ± 0.88", "unit": "nM"}
    ]},
    {"compound": "C=C1C[C@](OC)([C@H](O)C(=O)N[C@@H](OC)[C@@H]2C[C@@H](OC)C(C)(C)[C@@H](C[C@@H](COC)OC)O2)O[C@H](C)[C@@H]1C", "note": "[Compound 41, 13-O-methyl pederin]", "values": [
      {"measurement": "activity against p53 knockout variant of HCT116 compared with HCT116", "setting": "[2]", "value": "essentially identical activity"},
      {"measurement": "GI50", "setting": "[1]; [5]", "value": "0.084 ± 0.01", "unit": "nM"}
    ]},
    {"compound": "COC[C@H](C[C@H]1O[C@H]([C@H](C)NC(=O)[C@@H](O)[C@@]2(OC)CC[C@@H](C)[C@@H](C)O2)C[C@@H](OC)C1(C)C)OC", "note": "[Compound 51, 4-desmethylene-10-(S)-methyl 13-O-methylpederin]", "values": [
      {"measurement": "GI50", "setting": "[1]; [6]", "value": "42 ± 5", "unit": "nM"}
    ]},
    {"compound": "COC[C@H](C[C@H]1O[C@H]([C@@H](C)NC(=O)[C@@H](O)[C@@]2(OC)CC[C@@H](C)[C@@H](C)O2)C[C@@H](OC)C1(C)C)OC", "note": "[Compound 52, 4-desmethylene-10-(R)-methyl 13-O-methylpederin]", "values": [
      {"measurement": "GI50", "setting": "[1]; [6]", "value": "> 9000", "unit": "nM"}
    ]},
    {"compound": "C4-desmethylene pederin [Compound 40]", "values": [
      {"measurement": "activity against p53 knockout variant of HCT116 compared with HCT116", "setting": "[2]", "value": "essentially identical activity"},
      {"measurement": "GI50", "setting": "[1]; [5]", "value": "6.5 ± 0.8", "unit": "nM"}
    ]},
    {"compound": "pedestatin [Compound 46]", "values": [
      {"measurement": "GI50", "setting": "[1]; [5]", "value": "0.046 ± 0.03", "unit": "nM"}
    ]}
  ]
}
